Data: US6649656B1, “Anthranilic acid derivatives” (Teijin Limited, priority 1998, dated 2003)
Where two headings read alike, the source gives them in different places.

Legend:
L929 cells = test: Measurement of cytotoxicity using mouse tumor cell L929 (neutral red assay); type: cell-based
Experimental: [Procedure] The cytotoxicity action on tumor cell was measured by neutral red assay (the method described in the Journal of Tissue Culture Methodology vol.9, p.7 (1984) and Toxicology Letters, vol.24, p.119 (1985)). Concretely, L929 cells (5×10^4 cells/ml, 10% FCS/RPMI) were added to the wells of a 96 well ELISA plate at a rate of 100 μL each and cultured for a night, and the testing compounds of respective measurement concentrations were dissolved in DMSO solution and added to the above cells. The culture was continued for 3 days, and 2.0 μL of Neutral Red was added to attain the final concentration of 0.01%. The mixture was incubated for 1 hour at 37° C., the supernatant of the cell culture product was removed and the residue was washed twice with 200 μL of PBS to remove excess Neutral Red. Thereafter, the dye taken into the cell was extracted by adding 100 μL of 50% ethanol-1% acetic acid aqueous solution and the amount of the dye was determined by measuring the absorbance at 490 nm. The cytotoxicity was determined at each concentration of the test compound taking the cytotoxicity free from the drug as 100%. […] Two sets of measurement were performed for each test under the same condition and the average value was used as the test result.

[1] = system: Cultured human cancer cells; test: Carcinostatic action on cultured human cancer cell (sulforhodamine B; GI50, TGI, LC50); type: cell-based; details: for CC50 / GI50: Homo sapiens
Experimental: [Procedure] Cultured human cancer cells (39 kinds) were scattered on a 96 well plate, a solution of the testing substance (5-stage concentrations starting from 10^−4 M and diluted 10 times to 10^−8 M) was added thereto on the next day and the cells were cultured for 2 days. The number of the proliferated cells on each plate was determined by colorimetric quantitative analysis with sulforhodamine B. The concentration to suppress the proliferation of cell by 50% (GI50) compared with a control (free from the testing substance) was calculated and the following values (concentrations) were calculated based on the number of cells immediately before the addition of the testing substance.
TGI: concentration to suppress the proliferation to a standard cell number (free from the change of apparent number of cells)
LC50: concentration to decrease the number of cells to 50% of the standard cell number (cytocidal activity)
The proliferation-suppressing results of three testing substances 124, 257 and 983 on 9 representative cancer cell strains are collectively shown in the Tables 93 to 95.

[2] = 72 h, cytotoxic activity against L929, neutral red assay, 3 days culture, read-out: LD50 (the source's name)
[3] = L929, 72 h, read-out: LD50 (μM)

## O=C(CCCOc1ccc2cc(Oc3ccc(CC(=O)Nc4ccccc4C(=O)O)cc3)ccc2c1)Nc1ccccc1C(=O)O [compound 4]
L929 cells; [2]
  CC50: 0.375 µM

## O=C(Cc1ccc(Oc2ccc3cc(OCC(=O)c4ccccc4)ccc3c2)cc1)Nc1ccccc1C(=O)O [compound 6]
L929 cells; [3]
  CC50: 2.4 µM

## O=C(Cc1ccc(Oc2ccc(OCc3ccncc3)cc2)cc1)Nc1ccccc1C(=O)O [compound 37]
L929 cells; [3]
  CC50: 1.02 µM

## CN(C)CCOc1ccc(Oc2ccc(CC(=O)Nc3ccccc3C(=O)O)cc2)cc1 [compound 47]
L929 cells; [2]
  CC50: 0.2 µM

## COC(=O)N1CCC[C@H]1COc1ccc(Oc2ccc(CC(=O)Nc3ccccc3C(=O)O)cc2)cc1 [compound 59]
L929 cells; [3]
  CC50: 2.4 µM

## CC(=O)NC1(COc2ccc(Oc3ccc(CC(=O)Nc4ccccc4C(=O)O)cc3)cc2)CCCC1 [compound 73]
L929 cells; [3]
  CC50: > 5 µM

## O=C(Cc1ccc(Oc2ccc(OCC3(NC(=O)c4ccccc4)CCCC3)cc2)cc1)Nc1ccccc1C(=O)O [compound 74]
L929 cells; [3]
  CC50: > 5 µM

## O=C(Cc1ccc(Oc2ccc(OC3CCC(NC(=O)Nc4ccccc4)CC3)cc2)cc1)Nc1ccccc1C(=O)O (centres unmarked) [compound 138]
L929 cells; [2]
  CC50: 0.13 µM

## CNc1ccccc1C(=O)N[C@H]1CC[C@@H](Oc2ccc(Oc3ccc(CC(=O)Nc4ccccc4C(=O)O)cc3)cc2)CC1 [compound 156]
L929 cells; [2]
  CC50: 0.3 µM

## Cn1c(C(=O)N[C@H]2CC[C@@H](Oc3ccc(Oc4ccc(CC(=O)Nc5ccccc5C(=O)O)cc4)cc3)CC2)cc2ccccc21 [compound 167]
L929 cells; [2]
  CC50: 0.18 µM

## O=C(Cc1ccc(Oc2ccc(O[C@H]3CC[C@@H](NC(=O)c4ccc(-c5ccccc5)cc4)CC3)cc2)cc1)Nc1ccccc1C(=O)O [compound 192]
L929 cells; [2]
  CC50: 0.26 µM

## O=C(Cc1ccc(Oc2ccc(O[C@H]3CC[C@@H](NC(=O)c4ccc(Oc5cc(Cl)cc(Cl)c5)o4)CC3)cc2)cc1)Nc1ccccc1C(=O)O [compound 248]
L929 cells; [2]
  CC50: 0.085 µM

## O=C(Cc1ccc(Oc2ccc(OC3CCN(Sc4ccc(Cl)c(Cl)c4)CC3)cc2)cc1)Nc1ccccc1C(=O)O [compound 257]
[1]; HBC-4
  TGI: 18 µM
[1]; HCT-15
  TGI: 17 µM
  CC50: 53 µM
  GI50: < 0.01 µM
[1]; HBC4, HBC-4
  CC50: 58 µM
  GI50: < 0.01 µM
[1]; MKN-74
  CC50: > 100 µM
  GI50: < 0.01 µM
  TGI: 16 µM
[1]; NCI-H460
  CC50: 44 µM
  GI50: < 0.01 µM
  TGI: 11 µM
[1]; OVCAR-8
  CC50: 59 µM
  GI50: < 0.01 µM
  TGI: 23 µM
[1]; PC-3
  CC50: 69 µM
  GI50: 10 µM
  TGI: 26 µM
[1]; RXF-631L
  CC50: 42 µM
  GI50: < 0.01 µM
  TGI: 14 µM
[1]; SF-539
  CC50: 51 µM
  GI50: < 0.01 µM
  TGI: 17 µM
[1]; LOX-IMVI
  CC50: 44 µM
  GI50: < 0.01 µM
  TGI: 10 µM

## N#Cc1cccc(SN2CCC(Oc3ccc(Oc4ccc(CC(=O)Nc5ccccc5C(=O)O)cc4)cc3)CC2)c1 [compound 264]
L929 cells; [2]
  CC50: 0.156 µM

## O=C(Cc1ccc(Oc2ccc(OCC3(NSc4ccccc4)CCCC3)cc2)cc1)Nc1ccccc1C(=O)O [compound 268]
L929 cells; [2]
  CC50: 0.16 µM

## O=C(Cc1ccc(Oc2ccc(OC3CCCCCCC3)cc2)nc1)Nc1ccccc1C(=O)O [compound 983]
[1]; HBC-4
  TGI: 76 µM
[1]; HCT-15
  TGI: 30 µM
  CC50: > 100 µM
  GI50: 0.1 µM
[1]; HBC4, HBC-4
  CC50: > 100 µM
  GI50: 0.59 µM
[1]; MKN-74
  CC50: > 100 µM
  GI50: 0.46 µM
  TGI: 25 µM
[1]; NCI-H460
  CC50: 95 µM
  GI50: 0.33 µM
  TGI: 16 µM
[1]; OVCAR-8
  CC50: > 100 µM
  GI50: 4.2 µM
  TGI: 40 µM
[1]; PC-3
  CC50: > 100 µM
  GI50: 4.5 µM
  TGI: 31 µM
[1]; RXF-631L
  CC50: 96 µM
  GI50: 0.4 µM
  TGI: 18 µM
[1]; SF-539
  CC50: 51 µM
  GI50: 0.6 µM
  TGI: 20 µM
[1]; LOX-IMVI
  CC50: 50 µM
  GI50: 0.26 µM
  TGI: 3.4 µM
